{
  "source": "patent US20190008819A1",
  "about": "“Methods and Compositions Using Cetyl Myristoleate (CMO) In Medical Treatments” (priority 2017, published 2019)",
  "type_in_all_cases": "in vivo, human",
  "key": {"[1]": {"test_system": "middle age person with knee pain", "experiment": "Case report: knee pain, CMO with gabapentin", "conditions": "0.1 milligrams to 10 grams cetyl myristoleate once to four times per day with appropriate dosage gabapentin; one patient", "from_the_text": "A middle age person was taking a brief CMO regime for knee pain."}, "[2]": {"test_system": "middle age person with complex regional pain syndrome", "experiment": "Case report: complex regional pain syndrome with post-surgery pain", "protocol": "A middle age person with complex regional pain syndrome had post-surgery pain. It was so severe that the person was to have foot amputation for the pain. A dosage of 0.1 milligrams to 10 grams of cetyl myristoleate once to four times per day was administered to the person. Shortly, the person described the pain decreased by 20-30 percent."}, "[3]": {"test_system": "middle age person with shoulder pain", "experiment": "Case report: shoulder pain, CMO with gabapentin", "conditions": "0.1 milligrams to 10 grams cetyl myristoleate once to four times per day with an effective dosage gabapentin; one patient", "from_the_text": "A middle age person was taking a brief CMO regime for shoulder pain."}, "[4]": {"test_system": "middle age person with cervical post-surgery syndrome", "experiment": "Case report: cervical post-surgery syndrome", "conditions": "0.1 milligrams to 10 grams cetyl myristoleate once to four times per day; one patient", "from_the_text": "A middle age person experienced cervical post-surgery syndrome."}},
  "data": [
    {"smiles": "CCCC/C=C\\CCCCCCCC(=O)OCCCCCCCCCCCCCCCC", "note": "[cetyl myristoleate, cis-9-Cetyl myristoleate]", "values": [
      {"measurement": "knee pain", "setting": "[1]", "result": "decreased dramatically"},
      {"measurement": "pain decreased (patient described)", "setting": "[2]; 0.1 milligrams to 10 grams cetyl myristoleate once to four times per day, one patient, post-surgery pain", "result": "20-30%"},
      {"measurement": "amputation outcome", "setting": "[2]; patient was to have foot amputation for the pain, 0.1 milligrams to 10 grams once to four times per day", "result": "has not undergone amputation"},
      {"measurement": "shoulder pain", "setting": "[3]", "result": "decreased dramatically"},
      {"measurement": "post-laminectomy syndrome (PLS)", "setting": "[4]", "result": "improved significantly"}
    ]}
  ]
}
